ChEMBL document CHEMBL1201862, “PubChem BioAssay data set” (2004)
Activity calls are given as the source filed them.

What was measured:
[1] = target: T1, Epstein-Barr nuclear antigen 1 (Epstein-Barr virus (strain B95-8) (HHV-4) (Human herpesvirus 4), UniProt P03211); test: inhibition of EBV nuclear antigen 1 DNA binding – biochemical, fluorescence polarization, 1536-well, dose response (AID 2381); design: species or system human gammaherpesvirus 4;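 note: fluorescence polarization of a Cy5 DNA probe bound by EBNA-1 protein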
T1 sequence (P03211 whole entry): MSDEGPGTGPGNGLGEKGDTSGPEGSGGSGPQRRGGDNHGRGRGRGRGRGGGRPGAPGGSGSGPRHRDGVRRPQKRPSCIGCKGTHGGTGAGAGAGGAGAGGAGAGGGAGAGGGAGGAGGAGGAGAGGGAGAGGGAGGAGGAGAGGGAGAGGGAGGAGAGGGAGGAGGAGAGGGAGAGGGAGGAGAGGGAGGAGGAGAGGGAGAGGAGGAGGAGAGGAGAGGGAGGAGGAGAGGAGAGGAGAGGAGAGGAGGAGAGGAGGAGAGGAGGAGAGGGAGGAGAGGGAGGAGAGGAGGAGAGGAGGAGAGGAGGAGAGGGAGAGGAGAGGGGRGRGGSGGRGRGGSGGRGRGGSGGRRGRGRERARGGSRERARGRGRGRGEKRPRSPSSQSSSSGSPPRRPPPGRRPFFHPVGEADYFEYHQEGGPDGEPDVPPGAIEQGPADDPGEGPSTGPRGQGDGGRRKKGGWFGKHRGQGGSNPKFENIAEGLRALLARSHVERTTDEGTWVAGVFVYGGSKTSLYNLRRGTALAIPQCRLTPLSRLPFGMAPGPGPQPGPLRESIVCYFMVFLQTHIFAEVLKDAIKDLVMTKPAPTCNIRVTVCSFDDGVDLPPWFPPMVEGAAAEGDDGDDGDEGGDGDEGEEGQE

[2] = target: T2, Lytic switch protein BZLF1 (Epstein-Barr virus (strain B95-8) (HHV-4) (Human herpesvirus 4), UniProt P03206); test: inhibition of BZLF1 ZTA DNA binding – biochemical, fluorescence polarization, Epstein-Barr virus, 1536-well, counter-screen for EBNA-1 inhibitor project, dose response (AID 2377); design: species or system human gammaherpesvirus 4;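 note: fluorescence polarization of Cy5-labelled ZRE DNA probe bound by purified Zta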
T2 sequence (P03206 whole entry): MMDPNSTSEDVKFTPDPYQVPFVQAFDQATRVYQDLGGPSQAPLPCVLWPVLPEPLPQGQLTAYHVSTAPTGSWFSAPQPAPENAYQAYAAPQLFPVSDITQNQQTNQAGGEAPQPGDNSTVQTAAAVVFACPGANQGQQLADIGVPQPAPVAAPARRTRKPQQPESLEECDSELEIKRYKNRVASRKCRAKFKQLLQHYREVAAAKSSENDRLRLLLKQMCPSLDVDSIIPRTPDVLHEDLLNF

Mucolipin-3 = target: T3, Mucolipin-3 (Homo sapiens, UniProt Q8TDD5); test: Dose response cell-based high-throughput screening assay for agonists of the transient receptor potential channel ML3 (TRPML3). [Related pubchem assays: 1526, 1424, 1448 ]; type: functional
T3 sequence (Q8TDD5 whole entry): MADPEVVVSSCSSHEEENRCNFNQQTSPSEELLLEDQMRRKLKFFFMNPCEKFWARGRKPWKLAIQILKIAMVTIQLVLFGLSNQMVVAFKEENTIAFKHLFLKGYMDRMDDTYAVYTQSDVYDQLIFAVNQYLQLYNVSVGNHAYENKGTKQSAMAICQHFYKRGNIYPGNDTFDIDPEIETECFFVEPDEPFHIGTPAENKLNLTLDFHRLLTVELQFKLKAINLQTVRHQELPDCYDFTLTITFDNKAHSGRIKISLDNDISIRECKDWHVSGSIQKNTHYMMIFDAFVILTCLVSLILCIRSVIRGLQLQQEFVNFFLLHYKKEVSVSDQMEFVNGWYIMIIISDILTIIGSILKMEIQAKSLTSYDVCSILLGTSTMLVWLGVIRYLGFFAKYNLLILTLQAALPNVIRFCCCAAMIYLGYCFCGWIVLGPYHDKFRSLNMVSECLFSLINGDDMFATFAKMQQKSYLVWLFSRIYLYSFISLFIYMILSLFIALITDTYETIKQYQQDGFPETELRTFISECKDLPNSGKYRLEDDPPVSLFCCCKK

Ion channel NompC = Ion channel NompC (Danio rerio, UniProt Q7T1G6); test: Fluorescence counterscreen assay for TRPML3 agonists: dose response cell-based high-throughput screening assay to identify agonists of the transient receptor potential channel N1 (TRPN1). [Related pubchem assays: 1526, 1424, 1448 ]; type: functional
[3] = target: Glyceraldehyde-3-phosphate dehydrogenase (Homo sapiens, UniProt P04406)
Bcl-2-related protein A1 [4] = target: T4, Bcl-2-related protein A1 (Mus musculus, UniProt Q07440); test: small-molecule antagonists of Bfl-1/BH3 interaction – biochemical, TR-FRET, mouse Bfl-1, confirmation (AID 621);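 note: TR-FRET binding of GST-Bfl-1 to FITC-labelled Bid peptide via terbium antibody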
T4 sequence (Q07440 whole entry): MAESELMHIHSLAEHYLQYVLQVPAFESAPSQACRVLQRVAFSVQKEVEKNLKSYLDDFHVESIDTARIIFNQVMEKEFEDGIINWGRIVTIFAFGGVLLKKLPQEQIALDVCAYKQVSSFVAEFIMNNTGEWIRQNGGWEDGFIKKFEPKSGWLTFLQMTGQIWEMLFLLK

Bcl-2-related protein A1 [5] = target: T4, Bcl-2-related protein A1; test: Bfl-1 binding inhibitors, SAR follow-up, biochemical, fluorescence polarization (AID 1070)
Estrogen receptor beta [6] = target: T5, Estrogen receptor beta (Homo sapiens, UniProt Q92731);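 note: recombinant ER-beta bound to coactivator SRC1 peptide in presence of estradiol agonist; inhibitors block coactivator peptide binding and lower the FRET signal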
Estrogen receptor beta [7] = target: T5, Estrogen receptor beta; test: blockers of SRC-3 recruitment to ERβ – biochemical, ELISA, streptavidin-HRP readout, orthogonal assay, confirmation (AID 1060)
[8] = target: T6, Carboxy-terminal domain RNA polymerase II polypeptide A small phosphatase 1 (Homo sapiens, UniProt Q9GZU7); test: CTDSP1 inhibitors, concentration-response, biochemical, absorbance readout, ultra-high-throughput screen actives (AID 540297); type: functional
T6 sequence (Q9GZU7 whole entry): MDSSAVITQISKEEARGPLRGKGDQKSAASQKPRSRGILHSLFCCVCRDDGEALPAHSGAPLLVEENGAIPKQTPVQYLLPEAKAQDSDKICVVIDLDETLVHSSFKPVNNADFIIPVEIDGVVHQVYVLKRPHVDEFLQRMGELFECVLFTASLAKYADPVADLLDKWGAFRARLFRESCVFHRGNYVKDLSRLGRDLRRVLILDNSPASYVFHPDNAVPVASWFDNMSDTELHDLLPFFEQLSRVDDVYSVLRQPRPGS

[9] = target: Voltage-gated inwardly rectifying potassium channel KCNH2 (Homo sapiens, UniProt Q12809); test: concentration-dependent hERG rescue from blockers – cell-based, thallium flux, dose response (AID 2121); type: ADME
Cytochrome P450 2D6 = Cytochrome P450 2D6 (Homo sapiens, UniProt P10635); test: qHTS Assay for Inhibitors and Substrates of Cytochrome P450 2D6. [Related pubchem assays: 410 ]; type: ADME; settings: read-out: Potency
Cytochrome P450 2C9 = Cytochrome P450 2C9 (Homo sapiens, UniProt P11712); settings: Potency
[10] = target: Protein-tyrosine kinase 2-beta (Homo sapiens, UniProt Q14289);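 note: potency of inhibitors of PYK2 kinase phosphorylation of poly-GT substrate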
[11] = target: FAD-linked sulfhydryl oxidase ALR (Homo sapiens, UniProt P55789); test: ALR-catalysed DTT oxidation blockers – biochemical, H2O2 detection, luminescence, cherry-pick, dose response (AID 493248)
Sequence of FAD-linked sulfhydryl oxidase ALR (P55789 whole entry): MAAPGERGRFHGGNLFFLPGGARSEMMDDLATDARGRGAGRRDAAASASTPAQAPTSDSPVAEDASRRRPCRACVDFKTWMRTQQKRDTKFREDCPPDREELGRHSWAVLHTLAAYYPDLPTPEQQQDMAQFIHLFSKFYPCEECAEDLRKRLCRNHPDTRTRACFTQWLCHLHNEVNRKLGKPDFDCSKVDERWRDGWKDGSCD

Sequence of Protein-tyrosine kinase 2-beta (Q14289 whole entry): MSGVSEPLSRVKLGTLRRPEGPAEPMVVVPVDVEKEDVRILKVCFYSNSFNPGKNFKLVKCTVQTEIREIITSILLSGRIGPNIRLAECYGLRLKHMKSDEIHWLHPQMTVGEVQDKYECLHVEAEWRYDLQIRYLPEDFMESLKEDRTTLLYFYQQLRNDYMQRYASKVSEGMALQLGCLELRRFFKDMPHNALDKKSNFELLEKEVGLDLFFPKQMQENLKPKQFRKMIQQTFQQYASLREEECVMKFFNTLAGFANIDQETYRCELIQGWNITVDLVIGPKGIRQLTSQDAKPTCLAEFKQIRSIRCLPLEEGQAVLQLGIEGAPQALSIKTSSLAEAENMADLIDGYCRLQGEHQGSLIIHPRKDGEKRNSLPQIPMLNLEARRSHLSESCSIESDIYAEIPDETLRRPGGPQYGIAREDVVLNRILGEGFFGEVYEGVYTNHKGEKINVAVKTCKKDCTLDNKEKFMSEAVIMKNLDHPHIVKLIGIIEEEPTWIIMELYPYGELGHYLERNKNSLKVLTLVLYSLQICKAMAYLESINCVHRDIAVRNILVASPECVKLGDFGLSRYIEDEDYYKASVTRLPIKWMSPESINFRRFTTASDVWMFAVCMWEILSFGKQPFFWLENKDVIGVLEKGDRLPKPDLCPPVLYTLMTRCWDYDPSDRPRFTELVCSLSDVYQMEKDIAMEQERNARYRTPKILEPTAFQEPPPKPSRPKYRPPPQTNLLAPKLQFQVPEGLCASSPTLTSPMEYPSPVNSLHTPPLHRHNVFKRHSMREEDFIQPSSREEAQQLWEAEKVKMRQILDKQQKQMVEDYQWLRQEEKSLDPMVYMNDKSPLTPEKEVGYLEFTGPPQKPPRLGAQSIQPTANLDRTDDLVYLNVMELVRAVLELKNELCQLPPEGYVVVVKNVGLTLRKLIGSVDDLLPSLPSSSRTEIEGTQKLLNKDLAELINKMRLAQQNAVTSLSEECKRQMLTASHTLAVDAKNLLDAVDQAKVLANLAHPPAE
T5 sequence (Q92731 whole entry): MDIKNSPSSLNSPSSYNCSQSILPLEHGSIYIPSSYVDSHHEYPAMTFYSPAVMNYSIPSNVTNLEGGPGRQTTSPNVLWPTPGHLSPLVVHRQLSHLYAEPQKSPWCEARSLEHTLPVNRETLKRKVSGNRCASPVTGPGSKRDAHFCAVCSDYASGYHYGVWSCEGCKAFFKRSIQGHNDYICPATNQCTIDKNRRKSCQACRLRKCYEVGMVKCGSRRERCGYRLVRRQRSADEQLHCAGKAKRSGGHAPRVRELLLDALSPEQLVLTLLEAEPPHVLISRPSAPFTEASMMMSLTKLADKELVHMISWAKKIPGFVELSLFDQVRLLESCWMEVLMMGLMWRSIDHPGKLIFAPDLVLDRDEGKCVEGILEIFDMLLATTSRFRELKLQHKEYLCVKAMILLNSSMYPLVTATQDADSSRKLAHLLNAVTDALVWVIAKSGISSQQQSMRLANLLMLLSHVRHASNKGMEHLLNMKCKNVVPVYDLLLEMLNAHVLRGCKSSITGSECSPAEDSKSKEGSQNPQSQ
Sequence of Ion channel NompC (Q7T1G6 whole entry): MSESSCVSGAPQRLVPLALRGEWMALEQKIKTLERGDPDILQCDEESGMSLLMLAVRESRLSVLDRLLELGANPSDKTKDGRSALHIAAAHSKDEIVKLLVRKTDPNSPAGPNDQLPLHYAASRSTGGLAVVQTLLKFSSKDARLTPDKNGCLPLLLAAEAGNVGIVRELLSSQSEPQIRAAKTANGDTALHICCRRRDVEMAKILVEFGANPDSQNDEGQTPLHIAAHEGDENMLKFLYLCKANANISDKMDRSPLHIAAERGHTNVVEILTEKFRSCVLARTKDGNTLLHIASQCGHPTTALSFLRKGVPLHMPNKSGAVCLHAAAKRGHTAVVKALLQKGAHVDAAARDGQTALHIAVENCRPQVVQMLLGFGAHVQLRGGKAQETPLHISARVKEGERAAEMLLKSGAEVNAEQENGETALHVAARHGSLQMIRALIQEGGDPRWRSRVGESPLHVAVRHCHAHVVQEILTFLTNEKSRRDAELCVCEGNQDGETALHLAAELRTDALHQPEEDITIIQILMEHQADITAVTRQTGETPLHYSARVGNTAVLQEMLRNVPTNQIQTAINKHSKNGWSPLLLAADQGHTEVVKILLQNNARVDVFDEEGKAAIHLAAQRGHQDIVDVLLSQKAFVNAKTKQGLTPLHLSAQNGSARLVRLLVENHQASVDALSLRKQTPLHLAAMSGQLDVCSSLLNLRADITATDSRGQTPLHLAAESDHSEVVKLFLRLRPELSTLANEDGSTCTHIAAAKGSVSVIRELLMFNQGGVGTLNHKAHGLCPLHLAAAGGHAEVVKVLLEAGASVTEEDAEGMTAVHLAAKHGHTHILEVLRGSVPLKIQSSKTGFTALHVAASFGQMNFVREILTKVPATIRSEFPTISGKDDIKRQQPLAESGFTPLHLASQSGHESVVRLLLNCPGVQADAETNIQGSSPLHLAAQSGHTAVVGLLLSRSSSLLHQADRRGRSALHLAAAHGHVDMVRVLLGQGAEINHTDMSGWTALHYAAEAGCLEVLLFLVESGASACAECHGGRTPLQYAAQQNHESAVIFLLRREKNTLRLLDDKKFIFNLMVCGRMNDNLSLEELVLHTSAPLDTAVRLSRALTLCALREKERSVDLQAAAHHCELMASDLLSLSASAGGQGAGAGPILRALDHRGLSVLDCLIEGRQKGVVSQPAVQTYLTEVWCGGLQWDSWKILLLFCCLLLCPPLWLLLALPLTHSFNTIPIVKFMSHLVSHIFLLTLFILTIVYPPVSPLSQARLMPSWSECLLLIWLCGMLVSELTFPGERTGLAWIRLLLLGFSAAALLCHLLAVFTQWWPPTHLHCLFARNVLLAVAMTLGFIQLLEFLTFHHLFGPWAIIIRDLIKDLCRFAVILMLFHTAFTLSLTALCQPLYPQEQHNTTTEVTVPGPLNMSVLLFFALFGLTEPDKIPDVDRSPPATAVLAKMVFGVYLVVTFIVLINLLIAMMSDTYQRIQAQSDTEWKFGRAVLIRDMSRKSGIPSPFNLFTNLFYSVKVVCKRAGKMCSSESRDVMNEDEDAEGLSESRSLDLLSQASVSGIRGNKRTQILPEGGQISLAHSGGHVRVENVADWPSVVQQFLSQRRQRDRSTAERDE
Sequence of Voltage-gated inwardly rectifying potassium channel KCNH2 (Q12809 whole entry): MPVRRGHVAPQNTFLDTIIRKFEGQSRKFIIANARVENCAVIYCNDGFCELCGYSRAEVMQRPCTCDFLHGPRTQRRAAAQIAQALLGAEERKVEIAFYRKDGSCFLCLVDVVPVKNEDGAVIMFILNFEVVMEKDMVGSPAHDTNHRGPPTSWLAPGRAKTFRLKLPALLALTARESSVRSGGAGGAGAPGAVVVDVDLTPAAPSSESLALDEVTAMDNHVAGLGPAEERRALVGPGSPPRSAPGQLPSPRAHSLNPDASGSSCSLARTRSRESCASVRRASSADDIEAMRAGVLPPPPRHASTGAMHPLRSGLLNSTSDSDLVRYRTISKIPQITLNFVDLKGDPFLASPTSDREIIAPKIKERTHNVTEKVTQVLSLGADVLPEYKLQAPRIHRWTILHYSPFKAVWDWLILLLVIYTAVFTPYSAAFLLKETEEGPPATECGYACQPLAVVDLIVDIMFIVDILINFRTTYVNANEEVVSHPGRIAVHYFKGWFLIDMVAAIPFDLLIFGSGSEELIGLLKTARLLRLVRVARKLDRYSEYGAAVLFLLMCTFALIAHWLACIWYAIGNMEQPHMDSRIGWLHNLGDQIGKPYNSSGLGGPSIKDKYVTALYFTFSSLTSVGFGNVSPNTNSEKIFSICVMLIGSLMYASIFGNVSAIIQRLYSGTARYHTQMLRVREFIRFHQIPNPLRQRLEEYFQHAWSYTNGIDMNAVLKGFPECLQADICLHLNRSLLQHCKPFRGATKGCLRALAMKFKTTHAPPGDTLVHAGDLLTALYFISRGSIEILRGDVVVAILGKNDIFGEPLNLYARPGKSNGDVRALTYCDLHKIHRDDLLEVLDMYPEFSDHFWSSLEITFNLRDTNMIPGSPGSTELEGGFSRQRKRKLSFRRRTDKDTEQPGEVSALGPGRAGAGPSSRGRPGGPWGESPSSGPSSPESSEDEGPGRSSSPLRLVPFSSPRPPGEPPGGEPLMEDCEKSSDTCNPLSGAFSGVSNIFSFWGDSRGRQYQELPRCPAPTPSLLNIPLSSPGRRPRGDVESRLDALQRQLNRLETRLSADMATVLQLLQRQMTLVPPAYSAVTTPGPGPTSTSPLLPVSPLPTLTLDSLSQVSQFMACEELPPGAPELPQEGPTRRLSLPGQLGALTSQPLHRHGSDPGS
Sequence of Cytochrome P450 2D6 (P10635 whole entry): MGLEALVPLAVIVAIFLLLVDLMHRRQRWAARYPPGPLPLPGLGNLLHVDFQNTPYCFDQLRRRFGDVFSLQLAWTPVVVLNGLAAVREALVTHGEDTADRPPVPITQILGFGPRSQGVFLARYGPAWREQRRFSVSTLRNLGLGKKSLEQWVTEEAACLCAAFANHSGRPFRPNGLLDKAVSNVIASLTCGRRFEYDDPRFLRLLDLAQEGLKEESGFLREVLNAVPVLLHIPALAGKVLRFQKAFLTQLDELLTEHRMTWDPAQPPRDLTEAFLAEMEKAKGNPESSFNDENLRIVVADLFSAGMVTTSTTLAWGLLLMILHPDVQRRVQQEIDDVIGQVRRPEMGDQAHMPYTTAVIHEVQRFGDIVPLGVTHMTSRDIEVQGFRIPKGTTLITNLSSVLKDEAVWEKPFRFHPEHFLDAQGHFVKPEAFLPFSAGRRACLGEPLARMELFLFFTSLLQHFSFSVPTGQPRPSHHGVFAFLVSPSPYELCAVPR

With `O=C(Nc1cccc(-c2nnc(-c3ccccc3)o2)c1)C1CCCCC1` the IC50 [1] was 6.03 µM (active) and the IC50 [2] was > 111 µM (not active).

`Cc1cc(C)cc(N(CC(=O)N2CCOCC2)S(=O)(=O)c2ccccc2)c1` was tested, and the EC50 (Mucolipin-3) was 3.71 µM (active) and the EC50 (Ion channel NompC) was > 29.9 µM (not active).

In the case of `Cc1ccccc1N1CCN(C2=C(Cl)C(=O)N(c3ccc(Cl)c(Cl)c3)C2=O)CC1`, the IC50 [3] was > 100 µM (not active), the IC50 (Bcl-2-related protein A1 [4]) was > 100 µM (not active) and the IC50 (Bcl-2-related protein A1 [5]) was > 100 µM (not active).

With `O=C(Cc1cccs1)Nc1ccc(S(=O)(=O)N2CCCCC2)cc1` the IC50 (Estrogen receptor beta [6]) was 2.71 µM (active), the IC50 (Estrogen receptor beta [7]) was < 77 µM (not active) and the IC50 [8] was 4.95 µM (active).

In the case of `COc1ccc(/C=C2/NC(=O)N(CC(=O)Nc3cccc(C)c3)C2=O)cc1O`, the IC50 [1] was 9.14 µM (active) and the IC50 [2] was > 111 µM (not active).

`O=C(COc1ccc(Cl)cc1Cl)NC(=S)N1CCCc2ccccc21` was tested, and the EC50 [9] was 4.06 µM (active).

For `C=C(C)C(O)/C=C/c1cccc(OC)c1` (stereo not drawn), the AC50 (Cytochrome P450 2D6) was 7.94 µM (inconclusive) and the AC50 (Cytochrome P450 2C9) was 7.94 µM (inconclusive).

In the case of `N#C/C(=N\Nc1c(Cl)cccc1Cl)C(=O)NN`, the IC50 [10] was 28.2 µM (not active) and the AC50 [11] was 2.37 µM (active).

`O=c1c(/C=N/O)c(Nc2ccccc2)nc2ccccn12` was tested, and the IC50 [10] was > 69.5 µM (not active).
